According to article PMC3390782 (Angewandte Chemie (International Ed. in English), 2012):
pIC50: −log10 of the molar value. Converted amounts (≈) assume the structure as drawn.

Experiments:
B. subtilis 168 = assay: MIC, antibacterial activity; assay type: cell-based; conditions: strain F, Gram-positive
B. cereus ATCC11778 = assay: MIC, antibacterial activity; assay type: cell-based; conditions: strain H, Gram-positive
[1] = system: L. monocyfogenes ATCC19115; assay: MIC, antibacterial activity; assay type: cell-based, L. monocytogenes; conditions: strain L, Gram-positive
E. coli BL21 (DE3) = assay: MIC, antibacterial activity; assay type: cell-based
MRSA = assay: MIC, antibacterial activity; assay type: cell-based, Staphylococcus aureus; conditions: strain C, Gram-positive
S. aureus NorA = assay: MIC, antibacterial activity; assay type: cell-based
E. faecalis ATCC29212 = assay: MIC, antibacterial activity; assay type: cell-based
S. epidermidis AJCCM228 = assay: MIC, antibacterial activity; assay type: cell-based
[2] = system: E. coli BL21 (DE3) with AAC(6')/APH(2”)-pET22b; assay: MIC, antibacterial activity; assay type: cell-based
[3] = system: S. pyogenes serotype M12 (strain MGAS9429); assay: MIC, antibacterial activity; assay type: cell-based
VRE = assay: MIC, antibacterial activity; assay type: cell-based, Enterococcus; conditions: strain J, Gram-positive
[4] = system: B. subtilis 168 with AAC(6')/APH(2”)-pRB374; assay: MIC, antibacterial activity; assay type: cell-based; conditions: strain G, Gram-positive
[5] = system: E coli BL21 (DE3) with pET22b; assay: MIC, antibacterial activity; assay type: cell-based
[6] = system: E. coli BL21 (DE3) with AAC(3)-IV-lnt-pET19b-pps; assay: MIC, antibacterial activity; assay type: cell-based
E. coli MC1061 = assay: MIC, antibacterial activity; assay type: cell-based
S. mutans UA159 [7] = assay: MIC, antibacterial activity; assay type: cell-based
S. enterica ATCC14028 = assay: MIC, antibacterial activity; assay type: cell-based; conditions: strain U, Gram-negative
[8] = system: E. coli BL21 (DE3) with Eis; assay: MIC, antibacterial activity; assay type: cell-based
[9] = system: B. anthracis 34F2 Sterne strain; assay type: cell-based; conditions: strain I, Gram-positive
[10] = system: Shigella clinical isolate 6831; assay: MIC, antibacterial activity; assay type: cell-based
E. coli TolC = assay: MIC, antibacterial activity; assay type: cell-based
S. pyogenes = assay: Time of kill assay; assay type: cell-based; conditions: at MIC (4e 2.3 μg/mL, TOB 18.8 μg/mL); after 3 hours of incubation
S. mutans UA159 [11] = assay: Time of kill assay; assay type: cell-based; conditions: at MIC (4e 2.3 μg/mL, TOB 75 μg/mL); after 5 hours of incubation
[12] = system: B. subtilis with constitutive YFP expression (PY79); assay: Fluorescence microscopy of YFP-expressing bacteria; assay type: cell-based
human RBCs = assay: Hemolysis assay; conditions: 1 h at 37 °C
rat RBCs = assay: Hemolysis assay; conditions: 1 h at 37 °C
[13] = system: luciferase translation in lysates of E. coli; conditions: read-out: IC50, inhibition of luciferase translation; cited from earlier work

CCCCCCCCCCSCC1OC(OC2C(N)CC(N)C(OC3OC(CN)C(O)CC3N)C2O)C(O)C(N)C1O (stereo not drawn) [4c]
MIC (B. subtilis 168): 37.5 µg/mL (≈ 60.1 µM) | MIC (B. cereus ATCC11778): 18.8 µg/mL (≈ 30.1 µM) | MIC [1]: 37.5 µg/mL (≈ 60.1 µM) | MIC (E. coli BL21 (DE3); strain M, Gram-negative): 75 µg/mL (≈ 120 µM) | MIC (MRSA): 75 µg/mL (≈ 120 µM) | MIC (S. aureus NorA; strain B, Gram-positive): 37.5 µg/mL (≈ 60.1 µM)

CCCCCCCCCCCCS(=O)(=O)CC1OC(OC2C(N)CC(N)C(OC3OC(CN)C(O)CC3N)C2O)C(O)C(N)C1O (stereo not drawn) [6d]
MIC (E. faecalis ATCC29212; strain K, Gram-positive): 9.4 µg/mL (≈ 13.7 µM) | MIC (S. epidermidis AJCCM228; strain A, Gram-positive): 9.4 µg/mL (≈ 13.7 µM) | MIC (B. subtilis 168): 4.7 µg/mL (≈ 6.87 µM) | MIC (B. cereus ATCC11778): 9.4 µg/mL (≈ 13.7 µM) | MIC ([2]; strain O, Gram-negative): >150 µg/mL | MIC ([3]; strain D, Gram-positive): 18.8 µg/mL (≈ 27.5 µM) | MIC (VRE): 75 µg/mL (≈ 110 µM) | MIC [1]: 9.4 µg/mL (≈ 13.7 µM) | MIC [4]: >150 µg/mL | MIC ([5]; strain N, Gram-negative): >150 µg/mL | MIC ([6]; strain P, Gram-negative): >150 µg/mL | MIC (E. coli MC1061; strain S, Gram-negative): 18.8 µg/mL (≈ 27.5 µM) | MIC (E. coli BL21 (DE3); strain M, Gram-negative): 75 µg/mL (≈ 110 µM) | MIC (S. mutans UA159 [7]; strain E, Gram-positive): 9.4 µg/mL (≈ 13.7 µM) | MIC (S. enterica ATCC14028): >150 µg/mL | MIC ([8]; strain Q, Gram-negative): >150 µg/mL | MIC (MRSA): 75 µg/mL (≈ 110 µM) | MIC (S. aureus NorA; strain B, Gram-positive): 37.5 µg/mL (≈ 54.8 µM) | MIC [9]: 2.3 µg/mL (≈ 3.36 µM) | MIC ([10]; strain T, Gram-negative): >150 µg/mL | MIC (E. coli TolC; strain R, Gram-negative): 2.3 µg/mL (≈ 3.36 µM)

CCCCCCCCCCCCCCSC[C@H]1O[C@H](O[C@@H]2[C@@H](O)[C@H](O[C@H]3O[C@H](CN)[C@@H](O)C[C@H]3N)[C@@H](N)C[C@H]2N)[C@H](O)[C@@H](N)[C@@H]1O [4e]
MIC (E. faecalis ATCC29212; strain K, Gram-positive): 75 µg/mL (≈ 110 µM) | Time of kill: viable bacteria after incubation (S. pyogenes): no viable bacteria remained | MIC ([2]; strain O, Gram-negative): 4.7 µg/mL (≈ 6.91 µM) | MIC ([3]; strain D, Gram-positive): 2.3 µg/mL (≈ 3.38 µM) | MIC (VRE): 18.8 µg/mL (≈ 27.6 µM) | MIC [1]: 9.4 µg/mL (≈ 13.8 µM) | MIC [4]: 4.7 µg/mL (≈ 6.91 µM) | Time of kill: viable bacteria after incubation (S. mutans UA159 [11]): no viable bacteria remained | MIC ([5]; strain N, Gram-negative): 4.7 µg/mL (≈ 6.91 µM) | MIC ([6]; strain P, Gram-negative): 2.3 µg/mL (≈ 3.38 µM) | MIC (E. coli MC1061; strain S, Gram-negative): 4.7 µg/mL (≈ 6.91 µM) | MIC (E. coli BL21 (DE3); strain M, Gram-negative): 4.7 µg/mL (≈ 6.91 µM) | MIC (S. mutans UA159 [7]; strain E, Gram-positive): 2.3 µg/mL (≈ 3.38 µM) | Cell viability / YFP fluorescence by microscopy [12]: a significant drop in fluorescence | MIC (S. enterica ATCC14028): 37.5 µg/mL (≈ 55.1 µM) | MIC ([8]; strain Q, Gram-negative): 4.7 µg/mL (≈ 6.91 µM) | hemolysis of human RBCs (human RBCs; 18.8 μg/mL): 14.3 ± 1.7% | MIC (MRSA): 9.4 µg/mL (≈ 13.8 µM) | hemolysis of rat RBCs (rat RBCs; 18.8 μg/mL): 19.5 ± 0.3% | MIC (S. aureus NorA; strain B, Gram-positive): 9.4 µg/mL (≈ 13.8 µM) | MIC [9]: 0.3 µg/mL (≈ 0.441 µM) | MIC (E. coli TolC; strain R, Gram-negative): 4.7 µg/mL (≈ 6.91 µM)

CCCCCCCCCCCCCCS(=O)(=O)CC1OC(OC2C(N)CC(N)C(OC3OC(CN)C(O)CC3N)C2O)C(O)C(N)C1O (stereo not drawn) [6e]
MIC (VRE): 37.5 µg/mL (≈ 52.7 µM) | MIC (E. coli BL21 (DE3); strain M, Gram-negative): 18.8 µg/mL (≈ 26.4 µM) | MIC (MRSA): 18.8 µg/mL (≈ 26.4 µM) | MIC (S. aureus NorA; strain B, Gram-positive): 18.8 µg/mL (≈ 26.4 µM)

CCCCCCCCSCC1OC(OC2C(N)CC(N)C(OC3OC(CN)C(O)CC3N)C2O)C(O)C(N)C1O (stereo not drawn) [4b]
MIC (E. faecalis ATCC29212; strain K, Gram-positive): >150 µg/mL | MIC (S. epidermidis AJCCM228; strain A, Gram-positive): 75 µg/mL (≈ 126 µM) | MIC (B. subtilis 168): 37.5 µg/mL (≈ 62.9 µM) | MIC (B. cereus ATCC11778): 150 µg/mL (≈ 252 µM) | MIC ([2]; strain O, Gram-negative): >150 µg/mL | MIC ([3]; strain D, Gram-positive): 150 µg/mL (≈ 252 µM) | MIC (VRE): >150 µg/mL | MIC [1]: >150 µg/mL | MIC [4]: >150 µg/mL | MIC ([5]; strain N, Gram-negative): >150 µg/mL | MIC ([6]; strain P, Gram-negative): >150 µg/mL | MIC (E. coli MC1061; strain S, Gram-negative): 75 µg/mL (≈ 126 µM) | MIC (E. coli BL21 (DE3); strain M, Gram-negative): >150 µg/mL | MIC (S. mutans UA159 [7]; strain E, Gram-positive): 150 µg/mL (≈ 252 µM) | MIC (S. enterica ATCC14028): >150 µg/mL | MIC ([8]; strain Q, Gram-negative): >150 µg/mL | MIC (MRSA): >150 µg/mL | MIC (S. aureus NorA; strain B, Gram-positive): 150 µg/mL (≈ 252 µM) | MIC [9]: 75 µg/mL (≈ 126 µM) | MIC ([10]; strain T, Gram-negative): >150 µg/mL | MIC (E. coli TolC; strain R, Gram-negative): 9.4 µg/mL (≈ 15.8 µM)

CCCCCCCCCCCCSCC1OC(OC2C(N)CC(N)C(OC3OC(CN)C(O)CC3N)C2O)C(O)C(N)C1O (stereo not drawn) [4d]
MIC [1]: 18.8 µg/mL (≈ 28.8 µM) | MIC (E. coli MC1061; strain S, Gram-negative): 18.8 µg/mL (≈ 28.8 µM) | MIC (E. coli BL21 (DE3); strain M, Gram-negative): 18.8 µg/mL (≈ 28.8 µM) | MIC (MRSA): 37.5 µg/mL (≈ 57.5 µM)

NC[C@H]1O[C@H](O[C@H]2[C@H](O)[C@@H](O[C@H]3O[C@H](CO)[C@@H](O)[C@H](N)[C@H]3O)[C@H](N)C[C@@H]2N)[C@H](N)C[C@@H]1O [TOB, tobramycin, reference compound]
MIC (E. faecalis ATCC29212; Enterococcus faecalis, ATCC29212): 150 µg/mL (≈ 321 µM) | Time of kill: viable bacteria after incubation (S. pyogenes): almost no reduction in bacterial growth | MIC (S. epidermidis AJCCM228; Staphylococcus epidermidis, AJCCM228): 0.3 µg/mL (≈ 0.642 µM) | MIC ([2]; Escherichia coli): > 150 µg/mL | MIC ([2]; strain O, Gram-negative): >150 µg/mL | MIC ([3]; Streptococcus pyogenes): 18.8 µg/mL (≈ 40.2 µM) | MIC (VRE; Enterococcus, VRE): ≥ 150 µg/mL | Time of kill: viable bacteria after incubation (S. mutans UA159 [11]): almost no reduction in bacterial growth | MIC ([5]; Escherichia coli): 9.4 µg/mL (≈ 20.1 µM) | MIC ([6]; Escherichia coli): 150 µg/mL (≈ 321 µM) | MIC (E. coli MC1061; Escherichia coli, MC1061): 9.4 µg/mL (≈ 20.1 µM) | MIC (E. coli BL21 (DE3); Escherichia coli): 4.7 µg/mL (≈ 10.1 µM) | MIC (S. mutans UA159 [7]; Streptococcus mutans, UA159): 75 µg/mL (≈ 160 µM) | MIC ([8]; Escherichia coli): 18.8 µg/mL (≈ 40.2 µM) | pIC50 [13]: ~7.70 | hemolysis of human RBCs (human RBCs; 75 μg/mL): no measurable hemolysis | MIC (MRSA; Staphylococcus aureus, MRSA): ≥ 150 µg/mL | hemolysis of rat RBCs (rat RBCs; 75 μg/mL): no measurable hemolysis | MIC (S. aureus NorA; Staphylococcus aureus): 9.4 µg/mL (≈ 20.1 µM) | MIC ([10]; Shigella): 18.8 µg/mL (≈ 40.2 µM) | MIC (E. coli TolC; Escherichia coli): 4.7 µg/mL (≈ 10.1 µM)
